Source: patent US20070202486A1, “Method Of Assaying Substance Capable Of Changing Mitochondrial Membrane Potential” (Mitsubishi Pharma Corporation, priority 2004, published 2007)

Legend:
[1] = tested on: Girardi cells; test: Mitochondrial depolarization inhibition, JC-1 fluorescence ratio, ouabain/KCl-induced depolarization (Example 1); assay type: cell-based, human; conditions: 1 mM ouabain + 60 mM KCl, 2 hr
Experimental: First of all, Girardi cells are seeded on a plate usable for an optical measurement method, and cultured in a normal medium (MEM medium supplemented with additives, such as non-essential amino acid, fetal bovine serum and the like). Then, the medium is changed to a normal medium containing JC-1 to allow incorporation of JC-1 into the cell, the medium is changed to a normal medium containing a test substance, and the cells are cultured. Then, a depolarization-inducing medium is used (normal medium containing ouabain and KCl; in the evaluation method of the present invention, ouabain is used at a concentration of 0.1 μM-3 mM, and KCl is used at a concentration of 20 mM-90 mM). The test substance may be added along with or after addition of a depolarization-inducing medium following incorporation of JC-1 into the cell. After addition of the depolarization-inducing medium, the culture time can be 1-24 hr. Thereafter, the fluorescence of JC-1 monomer and the fluorescence of J-aggregate are measured on a fluorescence plate reader (capable of excitation at around 488-490 nm, which is the excitation wavelength of JC-1, and capable of fluorescence detection around 527 nm, which is the fluorescence wavelength peak of JC-1 monomer and around 590-600 nm, which is the fluorescence wavelength of J-aggregate), and the fluorescence intensity ratio (monomer fluorescence intensity/J-aggregate fluorescence intensity) is calculated.
Girardi cells suspended in a normal medium [(MEM (GIBCO 11095-098) supplemented with 1% non-essential amino acid (MEM Non-Essential Amino Acids Solution 10 mM 100× GIBCO 11140-050), and 10% fetal bovine serum (BIOFLUIDS DIVISION Lot No. 302030))] were seeded to a 96-well clear bottom black plate (MATRIX MT4940) at 200 μL/well and cultured.
JC-1 (Molecular Probes T-3168, 1 mg/mL DMSO solution) was added to a phenol red-free normal medium [MEM (GIBCO 51200-038) supplemented with 1% non-essential amino acid (MEM Non-Essential Amino Acids Solution 10 mM 100× GIBCO 11140-050), 1% L-glutamine (L-Glutamine-200 mM 100×: GIBCO 25030-149) and 10% fetal bovine serum (BIOFLUIDS DIVISION: Lot No. 302030)] at 10 μL/mL, the mixture was stirred with a vortex mixer and centrifuged at 3000 rpm for 1 min and the supernatant was filtered through a syringe filter (0.22 μm, MILLIPORE). The medium in the 96-well plate was removed and the JC-1 solution was dispensed to a cell-seeded well at 50 μL/well. […]
After induction of depolarization, the plate was set on a fluorescence plate reader (TECAN, SpectraFluor) heated to 37° C., and the J-aggregate fluorescence was measured at 595 nm using an excitation wavelength of 485 nm. Then, the monomer fluorescence was measured at 535 nm using an excitation wavelength of 485 nm. […]

[2] = tested on: Griardi cells; conditions: 3 hr low oxygen with metabolism inhibitor, then 1 hr normal medium; cited from earlier work
[3] = tested on: Griardi cells; conditions: JC-1, flow cytometry; cited from earlier work

| Structure (SMILES) | mitochondrial depolarization inhibitory action (fluorescence intensity ratio monomer/J-aggregate) [1] | other results |
| --- | --- | --- |
| CC1(C)Oc2ccc(C#N)cc2[C@@H](N2CCCC2=O)[C@@H]1O [levcromakalim] | did not prevent mitochondrial depolarization | – |
| CC1(C)Oc2ccc(C#N)cc2[C@H](N(Cc2ncc[nH]2)c2ccc(Cl)cc2)[C@H]1O [BMS-191095] | mitochondrial depolarization inhibitory action | – |
| Nc1ncnc2c1ncn2[C@@H]1O[C@H](CO)[C@@H](O)[C@H]1O [adenosine] | – | apoptosis [2]: strongly inhibited apoptosis |
| N#CC(C#N)=NNc1cccc(Cl)c1 [CCCP] | – | mitochondrial membrane potential (red fluorescence intensity of JC-1) [3]: decreased fluorescence intensity and depolarization of mitochondria were observed |
| COc1ccc([C@@H]2Sc3ccccc3N(CCN(C)C)C(=O)[C@@H]2OC(C)=O)cc1.Cl [diltiazem, diltiazem hydrochloride] | did not prevent mitochondrial depolarization | – |
| CC1=NS(=O)(=O)c2cc(Cl)ccc2N1 [diazoxide] | mitochondrial depolarization inhibitory action | – |
